# Experimental data reported in US8211945B2, “Carba-sugar amine derivative and glycolipid metabolic disorder treating agent containing the same as active ingredient” (Seikagaku Corporation, priority 2001, dated 2012).
# Positions count from the first letter of the chain named.
# Tests used:
# Experiment in all cases: Mutant β-galactosidase activity in model cells, 4 days culture
# Type in all cases: cell-based
# [1] = target: T1, human mutant β-galactosidase R457Q (Homo sapiens, UniProt P16278, R457Q)
# T1 construct: expressed in transfected cells; host or cells: SV40-immortalized skin fibroblasts of a β-galactosidase-deficient knockout mouse
# T1 sequence (P16278 29-677 R457Q): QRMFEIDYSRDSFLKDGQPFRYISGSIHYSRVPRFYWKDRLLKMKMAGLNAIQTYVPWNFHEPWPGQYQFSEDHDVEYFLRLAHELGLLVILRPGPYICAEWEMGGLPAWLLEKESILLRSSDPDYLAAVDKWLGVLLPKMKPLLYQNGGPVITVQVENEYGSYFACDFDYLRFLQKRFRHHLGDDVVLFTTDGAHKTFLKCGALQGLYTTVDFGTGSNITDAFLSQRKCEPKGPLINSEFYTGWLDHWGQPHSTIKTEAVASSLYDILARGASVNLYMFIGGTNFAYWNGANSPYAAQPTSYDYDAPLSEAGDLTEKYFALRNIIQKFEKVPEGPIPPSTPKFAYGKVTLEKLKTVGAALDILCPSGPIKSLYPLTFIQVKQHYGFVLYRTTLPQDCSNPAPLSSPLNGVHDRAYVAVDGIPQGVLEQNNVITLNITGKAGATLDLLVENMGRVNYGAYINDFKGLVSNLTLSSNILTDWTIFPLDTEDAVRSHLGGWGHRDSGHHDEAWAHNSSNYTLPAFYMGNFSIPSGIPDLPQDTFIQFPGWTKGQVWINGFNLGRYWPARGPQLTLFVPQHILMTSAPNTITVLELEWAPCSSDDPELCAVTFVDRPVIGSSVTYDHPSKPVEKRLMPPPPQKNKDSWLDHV
# Description: (§1) Cultured skin fibroblasts of a β-galactosidase-deficient knockout mouse was immortalized by introducing an SV40 viral gene, and enzyme genes integrated into pSV2neo and an expression vector were also introduced simultaneously, thereby establishing a model cell (Brain Dev., 23(5), 284-287, 2001). The genes used are human normal (GP8) and mutant β-galactosidase gene Y316C, G123R (infantile GM1-gangliosidosis), R201C (juvenile GM1-gangliosidosis), 151T, T82M, R201H, R263S, R457Q (adult GM1-gangliosidosis), W273L, Y83H, R482H and R482C (Morquio-B disease) (Hum. Genet., 93(2), 109-114, 1994).
# (§2) As a control substance, 0.5 mM N-(n-butyl)-deoxygalactonojirimycin (NB-DGJ: The Journal of Biological Chemistry, 269, 27108-27114 (1994)) was used, and the substance 18 of the present invention was used in an amount of 0.2 μM.
# (§3) Specifically, after culturing the model cell for 4 days using a cell culture medium (10% FCS DMEM) containing the substance 18 of the present invention, the resulting cells were recovered and diluted such that the amount of protein in the suspension became a predetermined level, and then enzyme activity in the diluted suspension was measured. Using 4-methylumbelliferyl-β-D-galactopyranoside as the fluorescent substrate, the enzyme activity during 30 minutes was measured at 37° C.
# [2] = target: T2, human mutant β-galactosidase Y316C (Homo sapiens, UniProt P16278, Y316C)
# T2 construct: expressed in transfected cells; host or cells: SV40-immortalized skin fibroblasts of a β-galactosidase-deficient knockout mouse
# T2 sequence (P16278 29-677 Y316C): T1 sequence (P16278 29-677 R457Q) with Y288C, Q429R
# Description: as §1, §2, §3
# [3] = target: T3, human mutant β-galactosidase Y83H (Homo sapiens, UniProt P16278, Y83H)
# T3 construct: expressed in transfected cells; host or cells: SV40-immortalized skin fibroblasts of a β-galactosidase-deficient knockout mouse
# T3 sequence (P16278 29-677 Y83H): T1 sequence (P16278 29-677 R457Q) with Y55H, Q429R
# Description: as §1, §2, §3
Compound,"enzyme activity increased in comparison with the control ([1]; R457Q, 0.2 μM) [%]","Relative ratio (×100%) ([1]; R457Q, substance 18 vs control)","enzyme activity ([1]; transferred gene R457Q, 0.2 μM, 4 days)","Relative ratio (×100%) ([2]; Y316C, substance 18 vs control)","enzyme activity ([2]; transferred gene Y316C, 0.2 μM, 4 days)","enzyme activity increased in comparison with the control ([3]; Y83H, 0.2 μM) [%]","Relative ratio (×100%) ([3]; Y83H, substance 18 vs control)","enzyme activity ([3]; transferred gene Y83H, 0.2 μM, 4 days)","enzyme activity, Control ([1]; transferred gene R457Q, control substance 0.5 mM NB-DGJ)","enzyme activity, Control ([2]; transferred gene Y316C, control substance 0.5 mM NB-DGJ)","enzyme activity, Control ([3]; transferred gene Y83H, control substance 0.5 mM NB-DGJ)"
"CCCCCCCCN[C@@H]1C=C(CO)[C@H](O)C(O)[C@@H]1O (stereo partly drawn) [Substance 18, N-octyl-5a-carba-α-L-arabino-hexo-5(5a)-enopyranosylamine]",≥ 150,2.42 ×100%,14.17,3.44 ×100%,0.80,≥ 150,2.27 ×100%,20.16,–,–,–
"CCCCN1C[C@H](O)[C@@H](O)[C@@H](O)[C@H]1CO [Control, N-(n-butyl)-deoxygalactonojirimycin, reference compound]",–,–,–,–,–,–,–,–,5.84,0.23,8.89
